Laboratory results published in paper PMC6125541, “Bioequivalence of a Fixed-Dose Combination Tablet of the Complete Two-Drug Regimen of Dolutegravir and Rilpivirine for Treatment of HIV-1 Infection” (Antimicrobial Agents and Chemotherapy, 2018).

What was measured:
[1] = Phase I open-label randomized 2-way crossover bioequivalence study, plasma pharmacokinetics of DTG and RPV; format: in vivo, healthy adults; conditions: blind sample size reestimation after 57 participants
Source text: This phase I study (ViiV-clinicalstudyregister.com identifier 201676) utilized an open-label, randomized, 2-way crossover design at a single center (Quintiles, Overland Park, KS, USA) (Fig. 2). The total duration of the study was approximately 8 weeks from the time of screening to the last follow-up visit. A crossover design was selected for this study to allow within-participant comparisons to be performed, thereby reducing the number of participants required for the study. Rilpivirine has a long half-life (∼50 h) ([15]); therefore, a 21-day washout between doses and a long pharmacokinetic sampling period were implemented to ensure that predose concentrations were negligible and that pharmacokinetic parameters could be well estimated.
The reference treatment consisted of DTG 50-mg tablets (Tivicay; ViiV Healthcare, Research Triangle Park, NC, USA), which were identical in composition to the commercial form except for a different film coat color, and commercial RPV 25-mg tablets (Edurant; Janssen Therapeutics, Titusville, NJ, USA). The test treatment was the FDC tablet with DTG at 50 mg and RPV at 25 mg (Juluca; ViiV Healthcare, Research Triangle Park, NC, USA).
Participants were randomly assigned 1:1 to 1 of 2 treatment sequences according to a randomization schedule generated before the start of the study. […]

[2] = design: method as in PMID 23979733; conditions: DTG 50 mg once daily and RPV 25 mg once daily with a moderate-fat meal; cited from earlier work
[3] = design: method as in PMID 24798770; conditions: cited from earlier work
[4] = cited from earlier work

Observed within-participant coefficient of variation (CVw) of Cmax [1] [%] | SMILES | Change in AUC0–t or Cmax on coadministration [2] | Plasma exposure in the fed state [3] | Half-life [4] [h] | Decrease in absorption after fasting versus a normal-fat meal ([4]; fasting vs normal-fat meal)
14.8 | C[C@@H]1CCO[C@H]2Cn3cc(C(=O)NCc4ccc(F)cc4F)c(=O)c(O)c3C(=O)N12 [DTG, dolutegravir] | no significant change | increase |  | 
32.9 | Cc1cc(/C=C/C#N)cc(C)c1Nc1ccnc(Nc2ccc(C#N)cc2)n1 [RPV, rilpivirine] | no significant change |  | ~50 | approximately 40%
